Patent US20230390234A1, “COMPOSITION INHIBITING MUSCLE LOSS OR PROMOTING MUSCLE FORMATION THROUGH SKIN-DERIVED EXOSOMES” (EX HEALTHCARE INC., priority 2021, published 2023)

Experiments:
[1] = test system: human fibroblast HS68 (FB); experiment: Cytotoxicity of betaine, CCK-8 cell viability in fibroblasts; format: cell-based; conditions: betaine at different concentrations, 24 hours, CCK-8, FIG. 1A
Method: (§1) As human skin dermal cells, normal human dermal fibroblasts (NHDF, fibroblasts) isolated from adult samples were purchased from LONZA (Cat. CC-2511). As […], C2C12 cells, which are myoblasts isolated and cultured from C3H mice, were purchased from ATCC (CRL-1772).
(§2) Subcultured passage 27 human fibroblast HS68 (hereinafter referred to as FB) or C2C12 was inoculated onto a 96-well plate at a concentration of 1×10^4 cells/well and cultured in an incubator at 5% CO2 and 37° C. for 24 hours. After culturing, cells were treated with betaine at different concentrations and additionally cultured for 24 hours, and an untreated group was used as a control. After the cells were washed with PBS, the cells were additionally cultured with CCK-8 (DONGJIN, CK04-11) for 2 hours, and absorbance was measured at 450 nm using a microplate reader. From the measured results, relative cell viability according to the betaine treatment concentration was calculated by setting the value of the control to 100.

[2] = test system: C2C12 cells; experiment: Cytotoxicity of betaine, CCK-8 cell viability in myofibroblasts; format: cell-based, mouse; conditions: betaine at different concentrations, 24 hours, CCK-8, FIG. 1B
Method: as §1, §2

[3] = test system: miRNA-26a; experiment: Level of miRNA-26a in exosomes isolated from treated fibroblasts (real-time qPCR); format: cell-based, human
Method: After treating the subcultured passage 27 FB with betaine for 48 hours, the medium was collected and centrifuged at 3000×g for 30 minutes. After centrifugation, only the supernatant was recovered and transferred to Ultra-15 Centrifugal Filter Units (Amicon, MERCK, C7715) and centrifuged at 4000×g for 40 minutes. Only the supernatant was recovered, Total Exosome Isolation Reagent (Invitrogen, Cat No #4478539) was added at ½ the volume of the supernatant, and the mixture was allowed to react at 4° C. overnight. The next day, after centrifugation at 10000×g for 1 hour, the supernatant was removed by suction, and then a final exosome pellet was re-suspended in PBS. The exosomes obtained in the present example are hereinafter referred to as “fibroblast-derived exosomes”.
2×10^6 FB cells were inoculated onto a 75 T flask, cultured for 24 hours, and then treated with betaine (0.1, 1 and 10 mM). After the cells were additionally cultured for 48 hours, exosomes were isolated by the method of Example 1-2, and microRNA (hereinafter described as miRNA) was extracted from the exosomes isolated from the culture medium using an RNeasy plus mini kit (Qiagen, Germany) according to the manufacturer's protocol.
Real-time qPCR was performed with a tagman probe targeting mature RNA. The relative expression level of the intracellular target miRNA was normalized with the expression level of RNU48, which is used as a housekeeping gene during miRNA quantification, and then shown as a relative %. The relative expression of miRNA-26a in exosomes was normalized with the expression of […], which is used as a housekeeping gene during quantification of miRNA in fibroblast exosomes, and then shown as a relative %. For all real-time qPCR analyses, an Applied Biosystems 7500 (Applied Biosystems) apparatus was used.
The FB was treated with the material shown in the following Table 1 to isolate exosomes in the same manner as in Example 1-1, and the level of miRNA-26a was confirmed in the exosomes by the method in Example 1-4.
Thereafter, after fibroblasts (FB) were treated with the Camellia japonica flower extract for 48 hours, exosomes were isolated by the method in Example 1-2. Furthermore, the level of miR-26a was confirmed in exosomes isolated from the culture medium by the method in Example 1-4. As a result of the confirmation, it could be confirmed that the level of miRNA-26a was increased in the exosomes isolated from the FB treated with the Camellia flower extract at a concentration of 50 ppm compared to the control which was an untreated group (FIG. 9).

[4] = test system: MURF1; experiment: Muscle loss marker expression in differentiated C2C12 cells, qPCR; format: cell-based, mouse; conditions: differentiated C2C12, 48 hours; betaine 0.1 mM or exosomes about 20 μg/ml, FIG. 4A
Method: (§3) C2C12 cells were inoculated onto a 6-well plate at a concentration of 1.5×10^5 cells/well and cultured for 24 hours. Thereafter, the medium was exchanged with a medium supplemented with 2% horse serum, and the cells were further cultured for 72 hours to promote the differentiation of C2C12 cells. After the differentiation was completed, the cells were treated with betaine at 0.1 mM or fibroblast-derived exosomes (about 20 μg/ml) obtained in Example 1-2 and further cultured for 48 hours. Total RNA was extracted with an RNeasy plus mini kit and cDNA was synthesized with SuperScript™ III (Invitrogen, USA). Thereafter, qPCR was performed with a target gene taqman probe, and then analysis was performed.
(§4) C2C12 cells were inoculated onto a 6-well plate at a concentration of 1.5×10^5 cells/well and cultured for 24 hours. Thereafter, the medium was exchanged with a medium supplemented with 2% horse serum, and the cells were further cultured for 72 hours to promote the differentiation of C2C12 cells. After the differentiation was completed, the cells were treated with the Camellia japonica flower extract at 50 ppm or the exosomes (about 20 μg/ml) obtained in Example 4-1 and further cultured for 48 hours. Thereafter, the change in expression of the target gene was confirmed by qPCR by the method in Example 2-1.

[5] = test system: myostatin; experiment: as above; format: cell-based, mouse; conditions: differentiated C2C12, 48 hours; betaine 0.1 mM or exosomes about 20 μg/ml, FIG. 4C
Method: as §3, §4

[6] = test system: atrogin-1; experiment: as above; format: cell-based, mouse; conditions: differentiated C2C12, 48 hours; betaine 0.1 mM or exosomes about 20 μg/ml, FIG. 4B
Method: as §3

[7] = test system: MyoD; experiment: Myogenesis marker expression in differentiated C2C12 cells, qPCR; format: cell-based, mouse; conditions: differentiated C2C12, 48 hours; betaine 0.1 mM or exosomes about 20 μg/ml, FIG. 5
Method: as §3

[8] = test system: MURF1; experiment: Muscle loss marker protein level in differentiated C2C12 cells, western blotting; format: cell-based, mouse; conditions: differentiated C2C12, 48 hours; betaine 0.1 or 0.5 mM or exosomes, FIG. 6
Method: (§5) C2C12 cells were inoculated onto a 6-well plate at a concentration of 5×10^5 cells/well and cultured for 24 hours. Thereafter, the medium was exchanged with a medium supplemented with 2% horse serum, and the cells were further cultured for 72 hours to promote the differentiation of C2C12 cells. After the differentiation was completed, the cells were treated with betaine (0.1 and 0.5 mM) or fibroblast-derived exosomes and further cultured for 48 hours. Thereafter, cells were lysed by adding a lysis buffer (1% NP40, 0.05 M Tris-HCl, pH 7.5, 0.15 M NaCl and 0.01 MgCl2) including a protease inhibitor to the C2C12 cells, and the concentration of proteins was measured by a […] (BCA) method. The quantified protein was separated with SDS-PAGE and transferred to a PVDF membrane, and the protein expression level of each muscle loss marker was confirmed with an antibody.

[9] = test system: atrogin-1; experiment: as above; format: cell-based, mouse; conditions: differentiated C2C12, 48 hours; betaine 0.1 or 0.5 mM or exosomes, FIG. 6
Method: as §5

[10] = test system: myostatin; experiment: as above; format: cell-based, mouse; conditions: differentiated C2C12, 48 hours; betaine 0.1 or 0.5 mM or exosomes, FIG. 6
Method: as §5

[11] = test system: MyoD; experiment: Myogenesis marker protein level in differentiated C2C12 cells, western blotting; format: cell-based, mouse; conditions: differentiated C2C12, 48 hours; betaine 0.1 or 0.5 mM or exosomes, FIG. 7
Method: as §5

Compound: C[N+](C)(C)CC(=O)O [Betaine]
- cell viability of FB [1]: no change
- cell viability of C2C12 [2]: no change
- miRNA-26a level in exosomes, fold change (vs. control) ([3]; FB treated with 1 mM): 1.821 fold
- level of miRNA-26a in exosomes vs. untreated control ([3]; FB treated with betaine 0.1, 1 and 10 mM, 48 hours, FIG. 3): increased
- expression of MURF1 (qPCR) vs. control [4]: slightly increased
- expression of myostatin (qPCR) vs. control [5]: almost the same level
- expression of atrogin-1 (qPCR) vs. control [6]: slightly increased
- expression of MyoD (qPCR) vs. control [7]: increased compared to the control, but was not at a significant level
- protein expression of MURF1 (western blotting) [8]: no change
- protein expression of atrogin-1 (western blotting) [9]: no change
- protein expression of myostatin (western blotting) [10]: no change
- protein expression of MyoD (western blotting) [11]: unchanged

Compound: O=c1c(O)c(-c2cc(O)c(O)c(O)c2)oc2cc(O)cc(O)c12 [Myricetin]
- miRNA-26a level in exosomes, fold change (vs. control) ([3]; FB treated with 25 uM): 1.599 fold

Compound: O=C1C[C@@H](c2ccc(O)cc2)Oc2cc(O)cc(O)c21 [Naringenin]
- miRNA-26a level in exosomes, fold change (vs. control) ([3]; FB treated with 10 uM): 1.854 fold

Compound: COc1ccc(-c2cc(=O)c3c(OC)c(OC)c(OC)c(OC)c3o2)cc1OC [Nobiletin]
- miRNA-26a level in exosomes, fold change (vs. control) ([3]; FB treated with 30 uM): 1.447 fold

Compound: Camelliaside A
- miRNA-26a level in exosomes, fold change (vs. control) ([3]; FB treated with 1 ppm): 1.956 fold

Compound: Copper Tripeptide
- miRNA-26a level in exosomes, fold change (vs. control) ([3]; FB treated with 10 ppm): 1.743 fold

Compound: Kojyl carboxy dipeptide-23
- miRNA-26a level in exosomes, fold change (vs. control) ([3]; FB treated with 10 ppm): 1.483 fold

Compound: L-carnosine
- miRNA-26a level in exosomes, fold change (vs. control) ([3]; FB treated with 5 ppm (0.0005%)): 1.537 fold
